Assay results taken from patent publication US20030232986A1, “Inhibitors of caspases” (Vertex Pharmaceuticals Incorporated, priority 1998, published 2003).
pIC50, pKi: −log10 of the molar value. Where two headings read alike, the source gives them in different places. Where a SMILES comes first, the peptide text is derived from it. [ ]: non-standard residue; d: D form. The star is where a group is joined. 4Abz = Nc1ccc(C(=O)O)cc1; Bz = O=C(c1ccccc1)*

What was measured:
Caspase-1 = molecular target: T1, Caspase-1 (Homo sapiens, UniProt P29466); assay: Caspase-1 enzyme inhibition (Ki); assay type: biochemical
T1 sequence (P29466 120-297 limits assumed): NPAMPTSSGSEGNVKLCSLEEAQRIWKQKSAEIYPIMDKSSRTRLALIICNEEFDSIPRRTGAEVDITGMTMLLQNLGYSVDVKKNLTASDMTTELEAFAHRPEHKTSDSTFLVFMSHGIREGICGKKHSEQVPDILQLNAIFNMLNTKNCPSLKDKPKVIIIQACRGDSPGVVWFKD
T1 sequence (P29466 317-404 limits assumed): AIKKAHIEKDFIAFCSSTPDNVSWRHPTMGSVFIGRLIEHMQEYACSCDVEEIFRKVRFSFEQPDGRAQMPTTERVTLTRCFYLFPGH
Summary of the method: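 Ki obtained by fitting rate versus inhibitor concentration to the Morrison tight-binding equation for competitive inhibitors, with pNA release read at 405 nm at 37 °C. Substrate Suc-YVAD-pNA (80 μM final) added after 15 min enzyme–inhibitor preincubation in Tris pH 7.5 buffer with DTT and CHAPS.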

[1] = test system: Human Peripheral Blood Mononuclear Cells (PBMC), mature IL-1β; assay: PBMC cell assay: IL-1β assay with human peripheral blood mononuclear cells; assay type: cell-based; conditions: LPS-stimulated human PBMC, mature IL-1β in supernatant by ELISA
Text: IL-1β Assay with a Mixed Population of Human Peripheral Blood Mononuclear Cells (PBMC) or Enriched Adherent Mononuclear Cells
Processing of pre-IL-1β by ICE can be measured in cell culture using a variety of cell sources. Human PBMC obtained from healthy donors provides a mixed population of lymphocyte subtypes and mononuclear cells that produce a spectrum of interleukins and cytokines in response to many classes of physiological stimulators. Adherent mononuclear cells from PBMC provides an enriched source of normal monocytes for selective studies of cytokine production by activated cells.
An initial dilution series of test compound in DMSO or ethanol is prepared, with a subsequent dilution into RPMI-10% FBS media (containing 2 mM L-glutamine, 10 mM HEPES, 50 U and 50 ug/ml pen/strep) respectively to yield drugs at 4× the final test concentration containing 0.4% DMSO or 0.4% ethanol. The final concentration of DMSO is 0.1% for all drug dilutions. A concentration titration which brackets the apparent Ki for a test compound determined in an ICE inhibition assay is generally used for the primary compound screen.
Generally 5-6 compound dilutions are tested and the cellular component of the assay is performed in duplicate, with duplicate ELISA determinations on each cell culture supernatant.
Buffy coat cells isolated from one pint human blood (yielding 40-45 ml final volume plasma plus cells) are diluted with media to 80 ml and LeukoPREP separation tubes (Becton Dickinson) are each overlaid with 10 ml of cell suspension. After 15 min centrifugation at 1500-1800×g, the plasma/media layer is aspirated and then the mononuclear cell layer is collected with a Pasteur pipette and transferred to a 15 ml conical centrifuge tube (Corning). Media is added to bring the volume to 15 ml, gently mix the cells by inversion and centrifuge at 300×g for 15 min. The PBMC pellet is resuspended in a small volume of media, the cells are counted and adjusted to 6×10^6 cells/ml.
For the cellular assay, 1.0 ml of the cell suspension is added to each well of a 24-well flat bottom tissue culture plate (Corning), 0.5 ml test compound dilution and 0.5 ml LPS solution (Sigma #L-3012; 20 ng/ml solution prepared in complete RPMI media; final LPS concentration 5 ng/ml). The 0.5 ml additions of test compound and LPS are usually sufficient to mix the contents of the wells. Three control mixtures are run per experiment, with either LPS alone, solvent vehicle control, and/or additional media to adjust the final culture volume to 2.0 ml. The cell cultures are incubated for 16-18 hr at 37° C. in the presence of 5% CO2.
At the end of the incubation period, cells are harvested and transferred to 15 ml conical centrifuge tubes. After centrifugation for 10 min at 200×g, supernatants are harvested and transferred to 1.5 ml Eppendorf tubes. It may be noted that the cell pellet may be utilized for a biochemical evaluation of pre-IL-1β and/or mature IL-1β content in cytosol extracts by Western blotting or ELISA with pre-IL-1β specific antisera.
PBMC are isolated and prepared as described above. Media (1.0 ml) is first added to wells followed by 0.5 ml of the PBMC suspension. After a one hour incubation, plates are gently shaken and nonadherent cells aspirated from each well. Wells are then gently washed three times with 1.0 ml of media and final resuspended in 1.0 ml media. The enrichment for adherent cells generally yields 2.5-3.0×10^5 cells per well. The addition of test compounds, LPS, cell incubation conditions and processing of supernatants proceeds as described above.
Quantikine kits (R&D Systems) may be used for the measurement of mature IL-1β. Assays are performed according to the manufacturer's directions. Mature IL-1β levels of about 1-3 ng/ml in both PBMC and adherent mononuclear cell positive controls are observed. […]

[2] = test system: Human whole blood, IL-1β production; assay: Whole blood assay for IL-1β production; assay type: cell-based; conditions: LPS-stimulated whole blood, IL-1β by ELISA
Method: The whole blood assay is a simple method for measuring the production of IL-1β (or other cytokines) and the activity of potential inhibitors. The complexity of this assay system, with its full complement of lymphoid and inflammatory cell types, spectrum of plasma proteins and red blood cells is an ideal in vitro representation of human in vivo physiologic conditions.
Set incubator or water bath at 30° C. Aliquot 0.25 ml of blood into 1.5 ml eppendorf tubes. Note: be sure to invert the whole blood sample tubes after every two aliquots. Differences in replicates may result if the cells sediment and are not uniformly suspended. Use of a positive displacement pipette will also minimize differences between replicate aliquots.
Prepare drug dilutions in sterile pyrogen-free saline by serial dilution. A dilution series which brackets the apparent Ki for a test compound determined in an ICE inhibition assay is generally used for the primary compound screen. For extremely hydrophobic compounds, prepare compound dilutions in fresh plasma obtained from the same blood donor or in PBS-containing 5% DMSO to enhance solubility.
Add 25 μl test compound dilution or vehicle control and gently mix the sample. Then add 5.0 μl LPS solution (250 ng/ml stocked prepared fresh: 5.0 ng/ml final concentration LPS), and mix again. Incubate the tubes at […] in a water bath for 16-18 hr with occasional mixing. Alternatively, the tubes can be placed in a rotator set at 4 rpm for the same incubation period. This assay should be set up in duplicate or triplicate with the following controls: negative control—no LPS; positive control—no test inhibitor; vehicle control—the highest concentration of DMSO or compound solvent used in the experiment. Additional saline is added to all control tubes to normalize volumes for both control and experimental whole blood test samples.
After the incubation period, whole blood samples are centrifuged for 10 minutes at ^˜2000 rpm in the microfuge, plasma is transferred to a fresh microfuge tube and centrifuged at 1000×g to pellet residual platelets if necessary. Plasma samples may be stored frozen at −70° C. prior to assay for cytokine levels by ELISA.
R & D Systems (614 McKinley Place N.E. Minneapolis, Minn. 55413) Quantikine kits may be used for measurement of IL-1β and TNF-α. The assays are performed according to the manufacture's directions. IL-1β levels of ^˜1-5 ng/ml in positive controls among a range of individuals may be observed. A 1:200 dilution of plasma for all samples is usually sufficient for experiments for ELISA results to fall on the linear range of the ELISA standard curves. It may be necessary to optimize standard dilutions if you observe differences in the whole blood assay. Nerad, J. L. et al., J. Leukocyte Biol., 52, pp. 687-692 (1992).

[3] = substrate Suc-YVAD-pNA 80 μM, 37° C., pH 7.5

Row | pKi (Caspase-1) | pKi (Caspase-1; [3]) | pIC50 [2] | SMILES | pIC50 [1]
1 | 6.00 to 8.00 | > 8.00 | > 5.60 | CC(=O)Nc1ccc(C(=O)N[C@H](C(=O)N2CCC[C@H]2C(=O)N[C@H](C=O)CC(=O)O)C(C)C)cc1 [Example 5a] (Ac-[4Abz]VPD-aldehyde) | < 5.70
2 | > 8.00 | > 8.00 | > 5.60 | COc1ccc(C(=O)N[C@H](C(=O)N2CCC[C@H]2C(=O)N[C@H](C=O)CC(=O)O)C(C)C)cc1OCc1ccccc1 [Example 5aa] | 6.00 to 6.30
3 | 6.00 to 8.00 | 6.00 to 8.00 | 5.12 to 5.60 | CC(C)[C@H](NC(=O)Cc1ccccc1OCc1ccccc1)C(=O)N1CCC[C@H]1C(=O)N[C@H](C=O)CC(=O)O [Example 5ab] | 6.00 to 6.30
4 | > 8.00 | > 8.00 | > 5.60 | COc1c(C)cc(C(=O)N[C@H](C(=O)N2CCC[C@H]2C(=O)N[C@H](C=O)CC(=O)O)C(C)C)cc1C [Example 5ac] | > 6.30
5 | > 8.00 | > 8.00 | > 5.60 | CC(C)[C@H](NC(=O)c1ccc2ncccc2c1)C(=O)N1CCC[C@H]1C(=O)N[C@H](C=O)CC(=O)O [Example 5ad] | > 6.30
6 | > 8.00 | > 8.00 | 5.12 to 5.60 | COc1ccc2cc([C@H](C)C(=O)N[C@H](C(=O)N3CCC[C@H]3C(=O)N[C@H](C=O)CC(=O)O)C(C)C)ccc2c1 [Example 5ag] | 6.00 to 6.30
7 | > 8.00 | > 8.00 | < 5.12 | CC(C)[C@H](NC(=O)c1ccc2c(c1)S(=O)(=O)c1ccccc1C2=O)C(=O)N1CCC[C@H]1C(=O)N[C@H](C=O)CC(=O)O [Example 5ai] | > 6.30
8 | 6.00 to 8.00 | 6.00 to 8.00 | < 5.12 | CC(C(=O)N[C@H](C(=O)N1CCC[C@H]1C(=O)N[C@H](C=O)CC(=O)O)C(C)C)c1ccc(C(=O)c2cccs2)cc1 (stereo partly drawn) [Example 5aj] | 6.00 to 6.30
9 | 6.00 to 8.00 | 6.00 to 8.00 | < 5.12 | COc1cc(CC(=O)N[C@H](C(=O)N2CCC[C@H]2C(=O)N[C@H](C=O)CC(=O)O)C(C)C)ccc1OCc1ccccc1 [Example 5ak] | 6.00 to 6.30
10 |  | > 8.00 | 5.12 to 5.60 | CC(C)[C@H](NC(=O)c1cccc(Oc2ccccc2)c1)C(=O)N1CCC[C@H]1C(=O)N[C@H](C=O)CC(=O)O [Example 5ay] | 6.00 to 6.30
11 |  | > 8.00 | > 5.60 | CC(C)[C@H](NC(=O)c1cccc(C(=O)c2ccccc2)c1)C(=O)N1CCC[C@H]1C(=O)N[C@H](C=O)CC(=O)O [Example 5az] | 6.00 to 6.30
12 |  | > 8.00 | > 5.60 | CC(C)[C@H](NC(=O)c1cc2ccccc2[nH]1)C(=O)N1CCC[C@H]1C(=O)N[C@H](C=O)CC(=O)O [Example 5b] | 6.00 to 6.30
13 |  | > 8.00 | 5.12 to 5.60 | CC(C)[C@H](NC(=O)c1ccc2c(c1)C(=O)c1ccccc1-2)C(=O)N1CCC[C@H]1C(=O)N[C@H](C=O)CC(=O)O [Example 5bb] | 6.00 to 6.30
14 |  | > 8.00 | 5.12 to 5.60 | CC(C)[C@H](NC(=O)c1cccc2ccccc12)C(=O)N1CCC[C@H]1C(=O)N[C@H](C=O)CC(=O)O [Example 5d] | 6.00 to 6.30
15 |  | 6.00 to 8.00 | > 5.60 | CC(C)[C@H](NC(=O)c1ccccc1)C(=O)N1CCC[C@H]1C(=O)N[C@H](C=O)CC(=O)O [Example 5e] (Bz-Val-Pro-Asp-aldehyde) | 6.00 to 6.30
16 |  | 6.00 to 8.00 | 5.12 to 5.60 | CC(C)[C@H](NC(=O)c1ccc(O)cc1)C(=O)N1CCC[C@H]1C(=O)N[C@H](C=O)CC(=O)O [Example 5f] | 5.70 to 6.00
17 | > 8.00 | > 8.00 | < 5.12 | CC(C)[C@H](NC(=O)c1cccc2c1-c1ccccc1C2)C(=O)N1CCC[C@H]1C(=O)N[C@H](C=O)CC(=O)O [Example 5i] | 5.70 to 6.00
18 | > 8.00 | > 8.00 | < 5.12 | CC(C)[C@H](NC(=O)c1cccc2c1Cc1ccccc1-2)C(=O)N1CCC[C@H]1C(=O)N[C@H](C=O)CC(=O)O [Example 5j] | < 5.70
19 | 6.00 to 8.00 | 6.00 to 8.00 | < 5.12 | CC(C)[C@H](NC(=O)c1ccccc1C(=O)c1ccc(F)cc1)C(=O)N1CCC[C@H]1C(=O)N[C@H](C=O)CC(=O)O [Example 5l] | > 6.30
20 | > 8.00 | > 8.00 | 5.12 to 5.60 | COc1cc(C(=O)N[C@H](C(=O)N2CCC[C@H]2C(=O)N[C@H](C=O)CC(=O)O)C(C)C)cc(OC)c1O [Example 5n] | 6.00 to 6.30
21 | 6.00 to 8.00 | 6.00 to 8.00 | < 5.12 | CC(C)[C@H](NC(=O)c1ccc2c(c1)OCO2)C(=O)N1CCC[C@H]1C(=O)N[C@H](C=O)CC(=O)O [Example 5r] | < 5.70
22 | 6.00 to 8.00 | 6.00 to 8.00 | < 5.12 | CC(C)[C@H](NC(=O)c1cnnc2ccccc12)C(=O)N1CCC[C@H]1C(=O)N[C@H](C=O)CC(=O)O [Example 5s] | 6.00 to 6.30
